Test system: RPMI 8226 myeloma xenografts
Assay: RPMI 8226 SCID mouse flank xenograft model
Format: in vivo
Conditions: 0.25 mg/kg intraperitoneally twice weekly, three weeks of treatment of established tumors, p<0.05
Method: FIG. 4. Patient myeloma cells treated in mixed culture are selectively killed by chaetocin in comparison to other bone marrow leukocytes, and chaetocin has in vivo anti-myeloma activity. A-C. Unsorted bone marrow leukocytes obtained from 4 patients with multiple myeloma were treated with 100 nM Chaetocin or diluent for 24 hours and then subjected to FACS analyses to examine induced cell death in various leukocyte subpopulations. […] Results from 4 unsorted patient marrow leukocyte samples are indicated in C, indicating selective killing of myeloma cells by chaetocin in mixed culture in all 4 examined patient samples. In A-C, surviving cells were defined as those with low annexin and 7-AAD staining. D. Chaetocin has in vivo anti-myeloma activity in the RRMI 8226 SCID flank xenograft mouse model. […]
In vivo experiments: The in vivo effects of chaetocin were preliminarily explored at Southern Research Institute with assistance from Dr. William Waud (Birmingham, Ala.) in SCID mice using subcutaneously flank-implanted RPMI 8226 myeloma xenografts using a twice-weekly intraperitoneal administration schedule, with chaetocin formulated in 25% DMSO and 75% PEG400. Tumor weights were calculated from volumes derived from direct tumor measurements. […]

Structure (SMILES): CN1C(=O)[C@@]23C[C@]4([C@]56C[C@@]78SS[C@@](CO)(C(=O)N7[C@H]5Nc5ccccc56)N(C)C8=O)c5ccccc5N[C@@H]4N2C(=O)[C@]1(CO)SS3 [chaetocin]
- T/C values: 50-60%

From patent US20090264421A1 (priority 2007, published 2009)
